Test results reported in patent publication US5274121A, “N-methyl-N-[4-(1-pyrrolidinyl)-2-butynyl]amide congeners as muscarinic agents” (priority 1992, dated 1993).
Entries after “also recorded” stand apart in the source; their conditions may differ. Like-named read-outs stand apart in the source and are kept apart here.

Legend:
[1] = tested on: NG108-15 neuroblastoma x glioma cells (m3 AChR); experiment: Inhibition of PGE1-stimulated cAMP levels in NG108-15 cells; assay type: cell-based; conditions: for agonist selectivity, in words: NG108-15 (cAMP) versus SK-N-SH (PI turnover); for inhibition at 100 µM / cAMP Inhib: relative to control with no compounds added, conc. of compounds = 100 μM; for inhibition at 100 µM: read-out: cAMP Inhib; for cAMP Inhib: 100 µM
Method: (§1) Compounds of the present invention were tested for their binding affinities and activation of second messengers in selective muscarinic cholinergic receptor systems. It is believed that m1 -, m4 -, and m5 AChRs couple exclusively to PI turnover, whereas m2 - and m3 -AChRs couple only to adenylate cyclase inhibition.
(§2) Compounds of the present invention were screened for their biological activity. Assay systems using SK-N-SH human neuroblastoma cells which express only m4 -AChRs coupled to PI turnover, and NG108-15 neuroblastoma x glioma cells which express only m3 AChRs coupled to adenylate cyclase inhibition were used.
Inhibition of PGE1 -stimulated cAMP levels in NG108-15 cells
Cells were plated in 24-well plates and were grown to 90% confluence. The growth media was then replaced with a solution of 1 mM IBMX in DMEM-Hepes (0.5 mL per well) and the cells were incubated for 10 min at 37° C. Agonists were then added at a final concentration of 100 μM, along with PGE1 (final conc, 5 μM), and the cells were incubated for a further 15 min at 37° C. The reaction Was terminated by aspirating the solution and adding 0.5 mL of 0.1N HCl. In order to extract the cAMP from the cells, they were incubated in 0.1 N HCl for 30 min at room temperature. An aliquot (35 50 μL) was removed, lyophilized, and assayed for cAMP by radioimmunoassay.

[2] = tested on: SK-N-SH human neuroblastoma cells (m4 AChR); experiment: Stimulation of PI turnover in SK-N-SH cells; assay type: cell-based; conditions: for Emax at 100 µM: Homo sapiens, 0.5 h
Method: as §1, §2
Stimulation of PI turnover in SK-N-SH cells
Cells were plated into 24-well plates at 100,000 cells per well. After 24 hours, they were labeled overnight with 2 μCi per well of [^3 H]-myo-inositol (American Radiolabeled Chemicals, Inc., St. Louis, Mo.; 15 Ci/mM; 2 μL of stock per mL of media). The cells were then rinsed twice with 10 mM LiCl in DMEM-Hepes and the cells were incubated in this solution for 5 min at 37° C. The indicated compound was then added at a final concentration of 100 μM and the cells were incubated for another 30 min at 37° C. The reaction was stopped by aspirating the solution and adding cold methanol to the cells. After transferring the cells to a glass tube and sonicating briefly, chloroform and water were added to make a two-phase system. The upper aqueous phase was applied to 0.6 mL anion exchange columns (AG X8, Bio-Rad) and the columns were washed and total inositol phosphates were eluted with 1M ammonium formate and 0.1M formic acid.

[3] = tested on: muscarinic receptors; conditions: literature; cited from earlier work
[4] = molecular target: T1, muscarinic receptors, NG108-15 cell membranes (m3 AChR) (Mus musculus, UniProt P32211); experiment: Inhibition of [3H]-NMS binding to membranes from NG108-15 cells; conditions: for inhibition at 50 µM: read-out: binding (% inhibition of 3H-NMS binding); for inhibition at 100 µM: conc. of compounds = 100 μM
T1 construct: membranes from NG108-15 cells; endogenous in cells; host or cells: NG108-15 neuroblastoma x glioma hybrid cells (crude membrane fraction)
T1 sequence (P32211 1-479): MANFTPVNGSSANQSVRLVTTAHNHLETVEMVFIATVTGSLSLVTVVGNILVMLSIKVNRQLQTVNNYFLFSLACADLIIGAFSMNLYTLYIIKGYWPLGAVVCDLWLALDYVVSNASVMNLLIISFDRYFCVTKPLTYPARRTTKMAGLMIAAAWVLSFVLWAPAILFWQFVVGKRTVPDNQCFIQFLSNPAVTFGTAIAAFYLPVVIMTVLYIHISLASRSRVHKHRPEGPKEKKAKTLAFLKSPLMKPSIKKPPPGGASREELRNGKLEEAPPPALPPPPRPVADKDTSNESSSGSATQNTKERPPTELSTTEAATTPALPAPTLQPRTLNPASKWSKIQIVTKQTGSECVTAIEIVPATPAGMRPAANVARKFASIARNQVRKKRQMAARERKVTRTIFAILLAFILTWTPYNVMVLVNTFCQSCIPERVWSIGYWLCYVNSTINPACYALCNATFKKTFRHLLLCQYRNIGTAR
Source text: as §2
(§3) Compounds of the present invention were also screened for their relative binding affinities. Assay systems which measured the inhibition of ^3 H-N-methylscopolamine (^3 H-NMS) binding to membranes from NG108-15 cells and membranes from SK-N-SH cells were used.
(§4) Inhibition of [^3 H]-NMS binding
(§5) Cells were grown to confluence, harvested, and a crude membrane fraction was obtained. […] The total volume was 1 mL. The incubation was terminated by rapid filtration over GF/B filters using a Brandel cell harvester. The filters were washed three times with ice-cold 0.9% NaCl, equilibrated in scintillation counting fluid and counted on a Beckman LS 5801 liquid scintillation counter at 47% efficiency. Non-specific binding was determined by coincubation with 1 μM atropine, and amounted to less than 15% of total counts. It was routinely subtracted from the total counts.

[5] = molecular target: T2, muscarinic receptors, SK-N-SH cell membranes (m4 AChR) (Homo sapiens, UniProt P20309); experiment: Inhibition of [3H]-NMS binding to membranes from SK-N-SH cells; conditions: for inhibition at 50 µM: read-out: binding (% inhibition of 3H-NMS binding); for inhibition at 100 µM: conc. of compounds = 100 μM
T2 construct: membranes from SK-N-SH cells; endogenous in cells; host or cells: SK-N-SH human neuroblastoma cells (crude membrane fraction)
T2 sequence (P20309 whole entry): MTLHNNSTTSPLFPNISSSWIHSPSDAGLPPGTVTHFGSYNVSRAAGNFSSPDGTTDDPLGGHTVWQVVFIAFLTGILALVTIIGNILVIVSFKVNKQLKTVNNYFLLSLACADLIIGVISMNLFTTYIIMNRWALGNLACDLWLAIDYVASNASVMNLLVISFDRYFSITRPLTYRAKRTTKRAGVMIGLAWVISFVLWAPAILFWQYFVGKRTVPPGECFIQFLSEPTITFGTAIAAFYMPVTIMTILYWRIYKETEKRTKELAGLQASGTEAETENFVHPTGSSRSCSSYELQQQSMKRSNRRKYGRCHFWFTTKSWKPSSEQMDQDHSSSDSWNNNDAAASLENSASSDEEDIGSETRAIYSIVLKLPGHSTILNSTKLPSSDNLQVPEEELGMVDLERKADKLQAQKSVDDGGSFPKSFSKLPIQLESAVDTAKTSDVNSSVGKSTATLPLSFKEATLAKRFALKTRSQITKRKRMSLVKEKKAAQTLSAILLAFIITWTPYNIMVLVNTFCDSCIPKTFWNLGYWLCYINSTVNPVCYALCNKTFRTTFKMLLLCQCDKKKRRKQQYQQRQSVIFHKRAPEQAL
Source text: as §2, §3, §4, §5

[6] = tested on: NG108-15 neuroblastoma x glioma cells (m3 AChR); experiment: Inhibition of PGE1-stimulated cAMP levels in NG108-15 cells; assay type: cell-based; conditions: read-out: cAMP Inhib (relative to OXO-M)
[7] = SK-N-SH cells, percent relative to the activity of OXO-M, conc. of compounds = 100 μM, read-out: Pi turnover
[8] = NG108-15 cells, conc. of compound = 50 μM
[9] = SK-N-SH cells, conc. of compound = 50 μM
[10] = 0.25 h, NG108-15 cells, data relative to OXO-M, conc. of compounds = 50 μM
[11] = SK-N-SH cells, data relative to OXO-M, conc. of compounds = 100 μM, read-out: Pi turnover (relative to OXO-M)

| Structure (SMILES) | inhibition at 50 µM [4, 8] | inhibition at 50 µM [5, 9] | Emax at 50 µM [6, 10] | inhibition at 100 µM ([4]; NG108-15 cells) | inhibition at 100 µM ([5]; SK-N-SH cells) | also measured |
| --- | --- | --- | --- | --- | --- | --- |
| CC(=O)N(C)CC#CCN1CCCC1 [UH 5, reference compound] | – | – | – | – | – | agonist selectivity, in words [1]: acted as an agonist in both systems; inhibition at 100 µM ([1]; NG108-15, NG108-15 cells): 63.2 ± 6%; cAMP Inhib ([1]; NG108-15 cells): 63%; Emax at 100 µM [2, 7]: 54%; muscarinic activity, in words [3]: maintains agonist activity and is nearly equi-potent to oxotremorine |
| CN(CC#CCN1CCCC1)C(=O)CCC(=O)NCCN [Compound 019, N-Methyl-N-[4-(1-pyrrolidinyl)-2-butynyl]-2-[4-(2-aminoethyl)carboxamido]propanamide] | 14 ± 2% | 25 ± 5% | 10 ± 10% | – | – | – |
| CN(CC#CCN1CCCC1)C(=O)c1ccccc1 [Compound 032] | 7 ± 4% | 20 ± 5% | 50 ± 20% | – | – | Emax at 100 µM [2, 11]: 4 ± 2% |
| C[N+](C)(C)CC#CCN1CCCC1=O [OXO-M, oxotremorine-M, reference compound] | 74 ± 3% | 49 ± 12% | 100% | 96.2 ± 2.1% | 52.1 ± 1.2% | inhibition at 100 µM ([1]; NG108-15, NG108-15 cells): 64.1 ± 1.9%; cAMP Inhib ([1]; NG108-15 cells): 65±3%; Emax at 100 µM [2, 11]: 100%; Emax at 100 µM [2, 7]: 100% |
| COC(=O)CCC(=O)N(C)CC#CCN1CCCC1 [Compound 009, N-Methyl-N-[4-(1-pyrrolidinyl)-2-butynyl]-3-methoxycarbonylpropanamide] | 5 ± 3% | 8 ± 1% | 10 ± 10% | – | – | – |
| CN(CC#CCN1CCCC1)C(=O)CCN [Compound 017] | – | – | – | 15.1 ± 3.5% | 18.1 ± 2.8% | agonist selectivity, in words [1]: selective agonists; inhibition at 100 µM ([1]; NG108-15, NG108-15 cells): 20.8 ± 1.7%; agonist activity in NG108-15 cells (cAMP inhibition), in words ([1]; NG108-15 cells): most active as agonists in NG108-15 cells; also recorded: approximately half as active as the full agonist oxotremorine-M; stimulation of PI turnover, in words ([2]; SK-N-SH cells): inactive in SK-N-SH cells |
| CN(CC#CCN1CCCC1)C(=O)CN [Compound 007, N-Methyl-N-[4-(1-pyrrolidinyl)-2-butynyl]-2-aminoacetamide] | – | – | – | 23.5 ± 4% | 17.3 ± 3.3% | agonist selectivity, in words [1]: selective agonists; inhibition at 100 µM ([1]; NG108-15, NG108-15 cells): 26.1 ± 1.6%; agonist activity in NG108-15 cells (cAMP inhibition), in words ([1]; NG108-15 cells): most active as agonists in NG108-15 cells; also recorded: approximately half as active as the full agonist oxotremorine-M; stimulation of PI turnover, in words ([2]; SK-N-SH cells): inactive in SK-N-SH cells |
| CN(CC#CCN1CCCC1)C(=O)c1cccc(Cl)c1 [Compound 026] | 17 ± 4% | 27 ± 10% | 30 ± 10% | – | – | Emax at 100 µM [2, 11]: 1 ± 1% |
| CN(CC#CCN1CCCC1)C(=O)CCCCNC(=O)OC(C)(C)C [Compound 035] | – | – | – | 26.7 ± 1.6% | 32.1 ± 2.1% | inhibition at 100 µM ([1]; NG108-15 cells): 0.5 ± 0.3%; Emax at 100 µM [2, 7]: 1 ± 1% |
| CC(=O)N(C)C(C)C#CCN1CCCC1 (centres unmarked) [BM 5, reference compound] | 91 ± 1% | 95 ± 1% | – | 97 ± 2% | 99 ± 1% | muscarinic activity, in words [3]: potent muscarinic agent with presynaptic antagonist and postsynaptic agonist activity |
| CC(=O)NCCNC(=O)CCC(=O)N(C)CC#CCN1CCCC1 [Compound 023] | 6 ± 4% | 6 ± 5% | 20 ± 10% | – | – | Emax at 100 µM [2, 11]: 6 ± 4% |
| CN(CC#CCN1CCCC1)C(=O)Oc1ccc(Cl)cc1 [Compound 027] | – | – | – | – | – | inhibition at 50 µM [4]: 27 ± 4%; Emax at 100 µM ([2]; SK-N-SH, read-out: Pi turnover (relative to OXO-M)): 1 ± 1%; inhibition at 50 µM [5]: 62 ± 1%; Emax at 50 µM ([6]; NG108-15, 0.25 h): 40 ± 10% |
| CN(CC#CCN1CCCC1)CC1OCCO1 [Compound 029, N-(2,5-dioxolylmethyl)-N-methyl-4-(1-pyrrolidinyl)-2-butynamine] | 5 ± 5% | 19 ± 5% | 40 ± 10% | – | – | – |
| CC(=O)NCCCCCC(=O)N(C)CC#CCN1CCCC1 [Compound 041] | – | – | – | 22.7 ± 2.8% | 17.4 ± 3.6% | inhibition at 100 µM ([1]; NG108-15 cells): 3 ± 1.7%; Emax at 100 µM [2, 7]: 1 ± 1% |
| COc1ccc(NC(=O)N(C)CC#CCN2CCCC2)cc1 [Compound 028] | 24 ± 6% | 61 ± 12% | 20 ± 10% | – | – | – |
| CN(CC#CCN1CCCC1)C(=O)CCC(=O)O [Compound 008, N-Methyl-N-[4-(1-pyrrolidinyl)-2-butynyl]-3-carboxypropanamide] | 1 ± 1% | 7 ± 2% | 10 ± 10% | – | – | – |
| CN(CC#CCN1CCCC1)CCC1OCCO1 [Compound 031] | 7 ± 5% | 20 ± 3% | 50 ± 10% | – | – | – |
| O=C1CCCN1CC#CCN1CCCC1 [oxotremorine] | – | – | – | – | – | muscarinic activity, in words [3]: potent and moderately selective central muscarinic agonist |
